According to patent US20250339409A1, “USES OF PAN BET INHIBITORS” (VYNE THERAPEUTICS INC., priority 2021, published 2025):
Several values for one entry are separate records, joined by “and”; a condition that tells them apart may be missing. Identical values can stand only once. Marks after values point to notes of the source that are not given here.

Tested on: anti collagen antibodies induced arthritis (ACAIA)
Test: Anti collagen antibodies induced arthritis (ACAIA) in mice, intra-articular treatment: paw thickness, arthritis clinical score, body weight;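 note: mouse arthritis induced by IV anti-collagen mAb on day 0 plus IP LPS on day 4, with body weight, caliper paw thickness and 0-4 paw score tracked against a day 0 baseline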
Details: for Average clinical score per day (untreated): untreated leg
[1] = Dexamethasone 1 mg/kg IA (Group 7), Av
[2] = Dexamethasone 1 mg/kg IA (Group 7), individual animals
[3] = Dexamethasone 1 mg/kg IP (Group 6), Av
[4] = Dexamethasone 1 mg/kg IP (Group 6), individual animals

## C[C@@H]1C[C@H]2[C@@H]3CCC4=CC(=O)C=C[C@]4(C)[C@@]3(F)[C@@H](O)C[C@]2(C)[C@@]1(O)C(=O)CO [dexamethasone, Dexamethasone, reference compound]
1 mg/kg IA (Group 7), Baseline
  Clinical score of treated leg (Avg.): 0.00 points
  Paw thickness Avg. Delta untreated -treated: 0.00 mm
  Percent change of weight per day (Av): 100.00%
  Percent change of weight per day (individual animal): 100%
  Δ clinical score untreated -treated, Avg. Delta: 0.00 points
  Average clinical score per day (untreated): 0.00 points
1 mg/kg IA (Group 7), Day 3
  Clinical score of treated leg (Avg.): 0.00 points
  Paw thickness Avg. Delta untreated -treated: −0.02 mm
  Percent change of weight per day (Av): 98.19%
  Percent change of weight per day (individual animal): 100% and 97.54% and 95.7% and 99.48%
  Δ clinical score untreated -treated, Avg. Delta: 0.00 points
  Average clinical score per day (untreated): 0.00 points
1 mg/kg IA (Group 7), Day 4
  Clinical score of treated leg (Avg.): 0.00 points
  Paw thickness Avg. Delta untreated -treated: −0.06 mm
  Percent change of weight per day (Av): 95.21%
  Percent change of weight per day (individual animal): 97.91% and 96.55% and 93.01% and 93.23%
  Δ clinical score untreated -treated, Avg. Delta: 0.00 points
  Average clinical score per day (untreated): 0.00 points
1 mg/kg IA (Group 7), Day 5
  Clinical score of treated leg (Avg.): 0.00 points
  Paw thickness Avg. Delta untreated -treated: −0.05 mm
  Percent change of weight per day (Av): 91.29%
  Percent change of weight per day (individual animal): 90.58% and 91.133% and 88.71% and 100%
  Δ clinical score untreated -treated, Avg. Delta: 0.00 points
  Average clinical score per day (untreated): 0.00 points
1 mg/kg IA (Group 7), Day 6
  Clinical score of treated leg (Avg.): 0.29 points
  Paw thickness Avg. Delta untreated -treated: 0.05 mm
  Paw thickness of treated leg (Avg.): 2.24** mm
  Paw thickness of untreated leg (Avg.): 2.29 mm
  Percent change of weight per day (Av): 88.66%
  Percent change of weight per day (individual animal): 86.91% and 87.68% and 86.02% and 102.0833%
  Δ clinical score untreated -treated, Avg. Delta: 0.29 points
  Average clinical score per day (untreated): 0.57 points
1 mg/kg IA (Group 7), Day 7
  Clinical score of treated leg (Avg.): 0.86 points
  Paw thickness Avg. Delta untreated -treated: −0.01 mm
  Paw thickness of treated leg (Avg.): 2.30** mm
  Paw thickness of untreated leg (Avg.): 2.30 mm
  Percent change of weight per day (Av): 88.04%
  Percent change of weight per day (individual animal): 89.01% and 83.25% and 86.02% and 104.1667%
  Δ clinical score untreated -treated, Avg. Delta: 0.00 points
  Average clinical score per day (untreated): 0.86 points
1 mg/kg IA (Group 7), Day 8
  Clinical score of treated leg (Avg.): 1.14 points
  Paw thickness Avg. Delta untreated -treated: 0.14 mm
  Paw thickness of treated leg (Avg.): 2.44 mm
  Paw thickness of untreated leg (Avg.): 2.59 mm
  Percent change of weight per day (Av): 89.48%
  Percent change of weight per day (individual animal): 90.05% and 83.25% and 87.63% and 104.6875%
  Δ clinical score untreated -treated, Avg. Delta: 0.57 points
  Average clinical score per day (untreated): 1.71 points
1 mg/kg IA (Group 7), Day 10
  Clinical score of treated leg (Avg.): 1.14 points
  Paw thickness Avg. Delta untreated -treated: 0.19 mm
  Paw thickness of treated leg (Avg.): 2.45 mm
  Paw thickness of untreated leg (Avg.): 2.64 mm
  Percent change of weight per day (Av): 92.65%
  Percent change of weight per day (individual animal): 91.1% and 92.61% and 87.63% and 104.1667%
  Δ clinical score untreated -treated, Avg. Delta: 0.43 points
  Average clinical score per day (untreated): 1.57 points
1 mg/kg IA (Group 7), Day 12
  Clinical score of treated leg (Avg.): 1.29 points
  Paw thickness Avg. Delta untreated -treated: 0.24 mm
  Paw thickness of treated leg (Avg.): 2.50 mm
  Paw thickness of untreated leg (Avg.): 2.74 mm
  Percent change of weight per day (Av): 96.89%
  Percent change of weight per day (individual animal): 93.19% and 99.01% and 90.32% and 110.4167% and 94.55%
  Δ clinical score untreated -treated, Avg. Delta: 0.43 points
  Average clinical score per day (untreated): 1.71 points
1 mg/kg IP (Group 6), Baseline
  Clinical score of treated leg (Avg.): 0.00 points
  Paw thickness Avg. Delta untreated -treated: 0.02 mm
  Percent change of weight per day (Av): 100.00%
  Percent change of weight per day (individual animal): 100%
  Δ clinical score untreated -treated, Avg. Delta: 0.00 points
  Average clinical score per day (untreated): 0.00 points
1 mg/kg IP (Group 6), Day 3
  Clinical score of treated leg (Avg.): 0.00 points
  Paw thickness Avg. Delta untreated -treated: 0.00 mm
  Percent change of weight per day (Av): 95.60** percent
  Percent change of weight per day (individual animal): 94.97% and 94.09% and 95.07% and 96.31% and 96.24% and 96.41% and 96.1165%
  Δ clinical score untreated -treated, Avg. Delta: 0.00 points
  Average clinical score per day (untreated): 0.00 points
1 mg/kg IP (Group 6), Day 4
  Clinical score of treated leg (Avg.): 0.00 points
  Paw thickness Avg. Delta untreated -treated: −0.01 mm
  Percent change of weight per day (Av): 96.59%
  Percent change of weight per day (individual animal): 96.48% and 95.5665% and 97.04% and 96.31% and 96.71% and 97.4359% and 96.6%
  Δ clinical score untreated -treated, Avg. Delta: 0.00 points
  Average clinical score per day (untreated): 0.00 points
1 mg/kg IP (Group 6), Day 5
  Clinical score of treated leg (Avg.): 0.00 points
  Paw thickness Avg. Delta untreated -treated: 0.01 mm
  Percent change of weight per day (Av): 88.34%
  Percent change of weight per day (individual animal): 88.44% and 86.2069% and 91.63% and 86.18% and 86.85% and 89.74% and 89.32%
  Δ clinical score untreated -treated, Avg. Delta: 0.00 points
  Average clinical score per day (untreated): 0.00 points
1 mg/kg IP (Group 6), Day 6
  Clinical score of treated leg (Avg.): 0.00* points
  Paw thickness Avg. Delta untreated -treated: −0.05 mm
  Paw thickness of treated leg (Avg.): 2.25** mm
  Percent change of weight per day (Av): 87.71%
  Percent change of weight per day (individual animal): 88.44% and 86.7% and 89.66% and 86.18% and 86.85% and 89.74% and 86.41%
  Δ clinical score untreated -treated, Avg. Delta: 0.00 points
  Average clinical score per day (untreated): 0.00 points
1 mg/kg IP (Group 6), Day 7
  Clinical score of treated leg (Avg.): 0.00** points
  Paw thickness Avg. Delta untreated -treated: 0.03 mm
  Paw thickness of treated leg (Avg.): 2.16**** mm
  Percent change of weight per day (Av): 88.39%
  Percent change of weight per day (individual animal): 89.45% and 85.22% and 88.67% and 87.5576% and 88.73% and 90.26% and 88.83%
  Δ clinical score untreated -treated, Avg. Delta: 0.00 points
  Average clinical score per day (untreated): 0.00 points
1 mg/kg IP (Group 6), Day 8
  Clinical score of treated leg (Avg.): 0.00** points
  Paw thickness Avg. Delta untreated -treated: 0.10 mm
  Percent change of weight per day (Av): 88.85%
  Percent change of weight per day (individual animal): 89.95% and 85.22% and 87.68% and 91.24% and 88.73% and 91.28% and 87.86%
  Δ clinical score untreated -treated, Avg. Delta: 0.00 points
  Average clinical score per day (untreated): 0.00 points
1 mg/kg IP (Group 6), Day 10
  Clinical score of treated leg (Avg.): 0.14* points
  Paw thickness Avg. Delta untreated -treated: −0.04 mm
  Paw thickness of treated leg (Avg.): 2.09** mm
  Percent change of weight per day (Av): 88.77%
  Percent change of weight per day (individual animal): 89.45% and 86.7% and 88.18% and 91.24% and 88.26% and 89.23% and 88.35%
  Δ clinical score untreated -treated, Avg. Delta: −0.14 points
  Average clinical score per day (untreated): 0.00 points
1 mg/kg IP (Group 6), Day 12
  Clinical score of treated leg (Avg.): 0.00* points
  Paw thickness Avg. Delta untreated -treated: −0.02 mm
  Percent change of weight per day (Av): 90.11%
  Percent change of weight per day (individual animal): 91.9598% and 88.18% and 91.133* percent and 90.78% and 90.14% and 89.23% and 89.32%
  Δ clinical score untreated -treated, Avg. Delta: 0.00 points
  Average clinical score per day (untreated): 0.00 points
[1]
  Weight per day, Baseline: 19.8 g
  Weight per day, Day 3: 19.5 g
  Weight per day, Day 4: 18.8 g
  Weight per day, Day 5: 18.1 g
  Weight per day, Day 6: 17.5 g
  Weight per day, Day 7: 17.4 g
  Weight per day, Day 8: 17.7 g
  Weight per day, Day 10: 18.3 g
[2]
  Weight per day, Baseline: 19.1 g and 20.3 g and 18.6 g and 19.2 g and 20.2 g (2×) and 20.9 g
  Weight per day, Day 3: 19.1 g (2×) and 19.8 g and 17.8 g and 19.9 g and 19.7 g and 20.6 g
  Weight per day, Day 4: 18.7 g and 19.6 g and 17.3 g and 17.9 g and 19.2 g and 19.1 g and 20.1 g
  Weight per day, Day 5: 17.3 g and 18.5 g and 16.5 g and 19.2 g and 18.2 g and 17.7 g and 19 g
  Weight per day, Day 6: 16.6 g and 17.8 g and 16 g and 19.6 g and 17.7 g and 17.1 g and 17.9 g
  Weight per day, Day 7: 17 g and 16.9 g and 16 g and 20 g and 17.4 g and 15.8 g and 18.7 g
  Weight per day, Day 8: 17.2 g and 16.9 g and 16.3 g and 20.1 g and 18 g and 16.4 g and 18.9 g
  Weight per day, Day 10: 17.4 g and 18.8 g and 16.3 g and 20 g and 18.2 g (2×) and 19.4 g
[3]
  Weight per day, Baseline: 20.5 g
  Weight per day, Day 3: 19.6 g
  Weight per day, Day 4: 19.8 g
  Weight per day, Day 5: 18.1 g
  Weight per day, Day 6: 18 g
  Weight per day, Day 7: 18.1 g
  Weight per day, Day 8: 18.2 g
  Weight per day, Day 10: 18.2 g
[4]
  Weight per day, Baseline: 19.9 g and 20.3 g (2×) and 21.7 g and 21.3 g and 19.5 g and 20.6 g
  Weight per day, Day 3: 18.9 g and 19.1 g and 19.3 g and 20.9 g and 20.5 g and 18.8 g and 19.8 g
  Weight per day, Day 4: 19.2 g and 19.4 g and 19.7 g and 20.9 g and 20.6 g and 19 g and 19.9 g
  Weight per day, Day 5: 17.6 g and 17.5 g (2×) and 18.6 g and 18.7 g and 18.5 g and 18.4 g
  Weight per day, Day 6: 17.6 g (2×) and 18.2 g and 18.7 g and 18.5 g and 17.5 g and 17.8 g
  Weight per day, Day 7: 17.8 g and 17.3 g and 18 g and 19 g and 18.9 g and 17.6 g and 18.3 g
  Weight per day, Day 8: 17.9 g and 17.3 g and 17.8 g (2×) and 19.8 g and 18.9 g and 18.1 g
  Weight per day, Day 10: 17.8 g and 17.6 g and 17.9 g and 19.8 g and 18.8 g and 17.4 g and 18.2 g
intra-articular 1 mg/kg, day 12, scale 0-4
  average arthritis score, treated limbs: 1.3
